Laboratory results from patent US20260151327A1, “COSMETIC COMPOSITION FOR SKIN PROTECTION CONTAINING SCUTELLARIA BAICALENSIS EXTRACT AS ACTIVE INGREDIENT” (EVERBIO CO., LTD., priority 2022, published 2026).

Columns and labels:
Type in all cases: cell-based
[1] = Cytotoxicity (CC50) in adipose-derived stem cells, 3 days exposure; settings: human, adipose-derived stem cells (ASCs, ATCC PCS-500-011), benzo[a]pyrene, ASCs exposed for 3 days; read-out: CC50 (50% cytotoxicity concentration)
Method: (§1) PCS-500-011™ cells (Thermo-Fisher Scientific, USA) were purchased as adipose-derived stem cells (ASCs) used in the experiment, from American Type Culture Collection (ATCC), and subcultured for 3 passages in the MesenPRO RS™ medium and MesenPRO RS™ growth supplement medium (Thermo-Fisher scientific, USA) until the live cells reached 80% to 90% confluency.
(§2) Specifically, the cell stock vial was thawed in a 37° C. water bath and suspended in a medium with an equal volume of the cell stock vial, and then the suspension was transferred to a tube and centrifuged (2,000 rpm, 2 min, 4° C.), followed by removal of the supernatant. The phosphate buffered saline (PBS) was added to the cell pellets remaining after the removal of the supernatant, and then the above procedures were repeated three times. Thereafter, the resultant product was placed in a medium where the cell pellets were to be grown, followed by gentle pipetting up and down, thereby preparing a cell suspension. The cell suspension was dispensed into a flask or dish containing an appropriate amount of medium. The cells were subcultured when the cells reached 70% to 80% confluency on the bottom.
(§3) PBS, media, and trypsin-EDTA were warmed at 37° C. for 30 minutes before use. The supernatant medium was removed by suction, and PBS was dispensed. […]

[2] = system: adipose-derived stem cells (ASCs); assay: as above; settings: benzo[a]pyrene, ASCs exposed for 3 days; read-out: CC50 (50% cytotoxicity concentration)
Method: as §1, §2, §3

[3] = system: adipose-derived stem cells (ASCs); assay: Annexin-V-PI staining and flow cytometry: protection of ASCs against benzo[a]pyrene toxicity; settings: human, 50 μM/mL
Method: The adipose-derived stem cell (ASC) protective effect of the Scutellaria baicalensis extract against the cell toxicity of benzo[a]pyrene was analyzed as below.
The adipose-derived stem cells cultured by the method in Example 1-1 were divided into i) a group treated with 50 μM/mL benzo[a]pyrene (BP50), ii) a group treated with 50 μM/mL benzo[a]pyrene and 200 μL/mL Scutellaria baicalensis extract (SBE200+BP50), and iii) a group treated with 50 μM/mL benzo[a]pyrene and 400 μL/mL Scutellaria baicalensis extract (SBE400+BP50). To observe cell apoptosis, the cells were stained using Annexin-V-PI dye kit (Invitrogen, USA). Since Annexin-V binds to phosphatidylserine (PS), which was exposed on the outer cell membrane during early apoptosis, early apoptosis can be identified using Annexin-V. Meanwhile, propidium iodide (PI), which binds to the nucleus, stains the nucleus through holes formed in the cell membrane in a state of late apoptosis or necrosis, thereby allowing the identification of late apoptotic or dead cells. […] For result analysis, the cellular viability was measured using a flow cytometer (BD FACSCalibur) and FlowJo 10.6.1 (BD Bioscience), and the results are shown in FIG. 2.

[4] = system: AMP-activated protein kinase (AMPK); assay: Lipolysis promoting effect in ASCs, PE-anti-AMPK staining, flow cytometry and AMPK synthesis level; settings: benzo[a]pyrene alone (BP50)
Method: (§4) AMP-activated protein kinase (AMPK) and hormone sensitive lipase (HSL), most common lipolytic enzymes, were applied to adipose-derived stem cells (ASCs), and the lipids obtained by degradation through AMPK were stained with PE-anti-AMPK (R&D system, USA), and the lipids obtained by degradation through HSL were stained with FITC-anti-HSL (R&D system, USA) for 24 hours. The lipids were washed with PBS, and then analyzed using a flow cytometer (FACSCalibur) and FlowJo v10.6.1 (BD Bioscience, USA), and the results are shown in FIG. 3A.
(§5) The synthesis levels of AMPK and HSL were analyzed and plotted in FIG. 3B.

[5] = system: hormone sensitive lipase (HSL); assay: Lipolysis promoting effect in ASCs, FITC-anti-HSL staining, flow cytometry and HSL synthesis level; settings: benzo[a]pyrene alone (BP50)
Method: as §4, §5

[6] = system: CCAAT enhancer binding protein alpha (CEBP-α); assay: mRNA expression level of CEBP-α in ASCs (RT-PCR); settings: 50 μM/mL benzo[a]pyrene (BP50) vs control (Con)
Method: The influence of benzo[a]pyrene and the Scutellaria baicalensis extract on the mRNA expression level of CCAAT enhancer binding protein alpha (CEBP-α), one of the lipolysis promoting genes, was investigated by the method as below.
The adipose-derived stem cells were divided into i) a control group with no treatment (Con), ii) a group treated with 50 μM/mL benzo[a]pyrene (BP50), iii) a group treated with 50 μM/mL benzo[a]pyrene and 200 μL/mL Scutellaria baicalensis extract (SBE200+BP50), and iv) a group treated with 50 μM/mL benzo[a]pyrene and 400 μL/mL Scutellaria baicalensis extract (SBE400+BP50), and the total RNA of each cell group was extracted using […] (GeneAll, Seoul, Korea). RNA was used to synthesize cDNA under the conditions of 1 minute at 95° C. and 35 seconds at 72° C. by using Maxime RT PreMix (iNtRON, Seungnam, Korea). The synthesized cDNA was amplified using the primers shown in Table 1 under the conditions of 15 seconds at 95° C., 30 seconds at 59° C., and 1 minute at 72° C. The amount of cDNA amplification was analyzed using iBright (FL1000, Thermo Fisher Scientific, Waltham, MA, USA) and iBright Analysis software 3.1.3 (Thermo Fisher Scientific, Waltham, MA, MA, USA), and the results are shown in FIG. 5.

Compound: c1ccc2c(c1)cc1ccc3cccc4ccc2c1c34 [benzo[a]pyrene, Benzo[a]pyrene]
- CC50 at 3 days [1]: 25 µM
- CC50 [2]: 50 µM
- cellular viability [3]: 48.1%
- early apoptotic cell proportion [3]: 29.6%
- late apoptotic cell proportion [3]: 51.8%
- proportion of cells undergoing lipolysis by AMPK [4]: 18.72%
- proportion of cells undergoing lipolysis by HSL [5]: 14.92%
- mRNA expression level of CEBP-α, fold higher than control group [6]: 4.73 fold
